Assay results taken from ChEMBL document CHEMBL4382254, “Design, synthesis, structure-activity relationships and mechanism of action of new quinoline derivatives as potential antitumor agents” (Eur J Med Chem, 2019).
Calls of active or inactive are those of the source. The rule behind the calls is not given here.

Legend:
[1] = Solubility of the compound in water; type: physicochemical
HCT-116 [2] = assay: Cytotoxicity against human HCT116 cells after 48 hrs by MTT assay; type: functional, cell-based; settings: HCT-116, 48 h
RKO [3] = assay: Cytotoxicity against human RKO cells after 48 hrs by MTT assay; type: functional, cell-based
DLD-1 [4] = assay: Cytotoxicity against human DLD1 cells after 48 hrs by MTT assay; type: functional, cell-based; settings: DLD-1, 48 h
BGC-823 = assay: Cytotoxicity against human BGC823 cells after 48 hrs by MTT assay; type: functional, cell-based; settings: BGC-823, 48 h
NCI-H1650 = assay: Cytotoxicity against human NCI-H1650 cells after 48 hrs by MTT assay; type: functional, cell-based; settings: NCI-H1650, 48 h
SK-OV-3 = assay: Cytotoxicity against human SKOV3 cells after 48 hrs by MTT assay; type: functional, cell-based; settings: SK-OV-3, 48 h
DLD-1 [5] = assay: Cytotoxicity against human DLD1 cells assessed as reduction in cell viability at 5 uM incubated for 24 hrs followed by compound washout by CCK8 assay; type: functional, cell-based; settings: TDE = time-dependent effect
RKO [6] = assay: Inhibition of colony formation in human RKO cells after 24 hrs by crystal violet staining based assay; type: functional, cell-based
HCT-116 [7] = assay: Induction of morphological changes in human HCT116 cells assessed as cell shrinkage at 5 to 10 uM after 24 hrs by phase contrast microscopic analysis; type: functional, cell-based
HCT-116 [8] = assay: Induction of morphological changes in human HCT116 cells assessed as reduction in cell number at 5 to 10 uM after 24 hrs by phase contrast microscopic analysis; type: functional, cell-based
RKO [9] = assay: Induction of morphological changes in human RKO cells assessed as reduction in cell number at 5 to 10 uM after 24 hrs by phase contrast microscopic analysis; type: functional, cell-based
FHC [10] = assay: Cytotoxicity against human FHC cells assessed as reduction in cell viability at 5 uM incubated for 24 hrs by CCK8 assay; type: cell-based
FHC [11] = assay: Cytotoxicity against human FHC cells assessed as reduction in cell viability at 10 to 20 uM incubated for 24 hrs by CCK8 assay; type: cell-based
HCT-116 [12] = assay: Induction of apoptosis in human HCT116 cells assessed as necrotic cells at 2.5 uM after 24 hrs by Annexin V-FITC/propidium iodide staining based flow cytometry (reference value: 3.46%); type: functional
HCT-116 [13] = assay: Induction of apoptosis in human HCT116 cells assessed as viable cells at 5 uM after 24 hrs by Annexin V-FITC/propidium iodide staining based flow cytometry (reference value: 73.26 to 87.19%); type: functional; settings: HCT-116, 24 h, read-out: Activity
HCT-116 [14] = assay: Induction of apoptosis in human HCT116 cells assessed as early apoptotic cells at 5 uM after 24 hrs by Annexin V-FITC/propidium iodide staining based flow cytometry (reference value: 3.32 to 5.5%); type: functional
HCT-116 [15] = assay: Induction of apoptosis in human HCT116 cells assessed as late apoptotic cells at 5 uM after 24 hrs by Annexin V-FITC/propidium iodide staining based flow cytometry (reference value: 6.08 to 11.92%); type: functional
HCT-116 [16] = assay: Induction of apoptosis in human HCT116 cells assessed as necrotic cells at 5 uM after 24 hrs by Annexin V-FITC/propidium iodide staining based flow cytometry (reference value: 3.46 to 9.31%); type: functional
HCT-116 [17] = assay: Induction of apoptosis in human HCT116 cells assessed as increase in late apoptotic cells after 24 hrs by Annexin V-FITC/propidium iodide staining based flow cytometry; type: functional, cell-based
HCT-116 [18] = assay: Induction of apoptosis in human HCT116 cells assessed as increase in cleaved PARP level at 2.5 to 10 uM after 24 hrs by immunoblot analysis; type: functional, cell-based
HCT-116 [19] = assay: Induction of apoptosis in human HCT116 cells assessed as decrease in pro-caspase9 level at 2.5 to 10 uM after 24 hrs by immunoblot analysis; type: functional, cell-based
HCT-116 [20] = assay: Induction of apoptosis in human HCT116 cells assessed as viable cells at 2.5 to 5 uM after 24 hrs in presence of pan-caspase inhibitor z-VAD-FMK by Annexin V-FITC/propidium iodide staining based flow cytometry (reference value: 88.08%); type: functional
HCT-116 [21] = assay: Induction of intracellular reactive oxygen species generation in human HCT116 cells at 5 to 10 uM after 24 hrs by DCFH-DA staining based flow cytometry; type: functional, cell-based
HCT-116 [22] = assay: Cell cycle arrest in human HCT116 cells assessed as accumulation at S phase at 5 uM after 24 hrs by propidium iodide staining based flow cytometry (reference value: 5.55%); type: functional
HCT-116 [23] = assay: Cell cycle arrest in human HCT116 cells assessed as accumulation at G2/M phase at 5 uM after 24 hrs by propidium iodide staining based flow cytometry (reference value: 16.3%); type: functional
HCT-116 [24] = assay: Induction of apoptosis in Bax-deficient human HCT116 cells assessed as viable cells at 5 uM after 24 hrs by Annexin V-FITC/propidium iodide staining based flow cytometry (reference value: 70.58%); type: functional; settings: HCT-116, 24 h, read-out: Activity
HCT-116 [25] = assay: Induction of apoptosis in Bax-deficient human HCT116 cells assessed as early apoptotic cells at 5 uM after 24 hrs by Annexin V-FITC/propidium iodide staining based flow cytometry (reference value: 8.01%); type: functional
HCT-116 [26] = assay: Induction of apoptosis in P53-deficient human HCT116 cells assessed as viable cells at 5 uM after 24 hrs by Annexin V-FITC/propidium iodide staining based flow cytometry (reference value: 75.5%); type: functional; settings: HCT-116, 24 h, read-out: Activity
HCT-116 [27] = assay: Induction of apoptosis in P53-deficient human HCT116 cells assessed as late apoptotic cells at 5 uM after 24 hrs by Annexin V-FITC/propidium iodide staining based flow cytometry (reference value: 34.09%); type: functional
HCT-116 [28] = assay: Induction of apoptosis in P53-deficient human HCT116 cells assessed as necrotic cells at 5 uM after 24 hrs by Annexin V-FITC/propidium iodide staining based flow cytometry (reference value: 4.45%); type: functional
[29] = biological target: Cellular tumor antigen p53 (Homo sapiens) (UniProt P04637); assay: Activation of P53 in human HCT116 cells assessed as increase in PUMA expression at 2.5 to 20 uM after 24 hrs by immunoblot analysis; type: cell-based
[30] = biological target: Cellular tumor antigen p53 (Homo sapiens) (UniProt P04637); assay: Activation of P53 in human HCT116 cells assessed as increase in p21 expression at 2.5 to 20 uM after 24 hrs by immunoblot analysis; type: cell-based
HCT-116 [31] = assay: Induction of apoptosis in P53-deficient human HCT116 cells assessed as increase in PUMA expression at 2.5 to 20 uM after 24 hrs by immunoblot analysis; type: functional, cell-based
HCT-116 [32] = assay: Induction of apoptosis in P53-deficient human HCT116 cells assessed as decrease in PARP expression at 2.5 to 20 uM after 24 hrs by immunoblot analysis; type: functional, cell-based
HCT-116 [33] = assay: Induction of apoptosis in human HCT116 cells assessed as change in P53 expression at 2.5 to 20 uM after 24 hrs by immunoblot analysis; type: functional, cell-based
[34] = biological target: Cellular tumor antigen p53 (Homo sapiens) (UniProt P04637); assay: Induction of P53 phosphorylation at Ser15 residue in human HCT116 cells after 15 to 90 mins by immunoblot analysis; type: cell-based
HCT-116 [35] = assay: Anticancer activity against human HCT116 cells xenografted in […] mouse assessed as reduction in tumor weight at 80 mg/kg administered once every 3 days for 21 days; type: functional, organism-based

Sequence of Cellular tumor antigen p53 (Homo sapiens) (P04637 whole entry, looked up): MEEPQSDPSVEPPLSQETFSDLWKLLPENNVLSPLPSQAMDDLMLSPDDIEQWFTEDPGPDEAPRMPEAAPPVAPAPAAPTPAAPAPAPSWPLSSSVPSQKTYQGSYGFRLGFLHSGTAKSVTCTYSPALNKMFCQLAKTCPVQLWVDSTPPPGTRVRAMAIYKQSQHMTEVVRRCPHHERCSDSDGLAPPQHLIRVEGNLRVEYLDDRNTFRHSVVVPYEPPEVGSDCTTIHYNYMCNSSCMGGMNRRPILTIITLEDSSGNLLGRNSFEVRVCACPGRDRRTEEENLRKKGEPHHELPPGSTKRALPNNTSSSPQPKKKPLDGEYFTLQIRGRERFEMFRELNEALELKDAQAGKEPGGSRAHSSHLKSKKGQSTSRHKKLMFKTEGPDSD

- solubility [1]: > 10000 µg/mL
- Activity [29]: Active
- Activity [30]: Active
- Activity [34]: Active
SMILES: CN(C)CCNc1ccnc2cc(OCc3ccc(F)cc3)ccc12
- IC50 (HCT-116 [2]): 370 nM
- IC50 (RKO [3]): 580 nM
- IC50 (DLD-1 [4]): 810 nM
- IC50 (BGC-823): 890 nM
- IC50 (NCI-H1650): 780 nM
- IC50 (SK-OV-3): 890 nM
- Activity (DLD-1 [5]): Tde
- inhibition (RKO [6]): Dose-dependent effect
- Activity (HCT-116 [7]): Active
- Activity (HCT-116 [8]): Active
- Activity (RKO [9]): Active
- Activity (FHC [10]): Non-Toxic
- Activity (FHC [11]): Toxic
- Activity (HCT-116 [12]): 6.64%
- viability at 5 µM (HCT-116 [13]): 52.5 to 69.1%
- Activity (HCT-116 [14]): 6.13 - 19.42%
- Activity (HCT-116 [15]): 17.49 - 17.54%
- Activity (HCT-116 [16]): 9.3 - 10.45%
- Activity (HCT-116 [17]): Dose-dependent effect
- Activity (HCT-116 [18]): Active
- Activity (HCT-116 [19]): Active
- Activity (HCT-116 [20]): 84.15%
- Activity (HCT-116 [21]): inactive
- Activity (HCT-116 [22]): 4.38%
- Activity (HCT-116 [23]): 12.94%
- viability at 5 µM (HCT-116 [24]): 77.3%
- Activity (HCT-116 [25]): 24.16%
- viability at 5 µM (HCT-116 [26]): 76.3%
- Activity (HCT-116 [27]): 14.05%
- Activity (HCT-116 [28]): 4.45%
- Activity (HCT-116 [31]): inactive
- Activity (HCT-116 [32]): inactive
- Activity (HCT-116 [33]): inactive
- Activity (HCT-116 [35]): Active
